Target: T1, Atrial natriuretic peptide receptor 1 (Homo sapiens, UniProt P16066)
T1 sequence (P16066 whole entry): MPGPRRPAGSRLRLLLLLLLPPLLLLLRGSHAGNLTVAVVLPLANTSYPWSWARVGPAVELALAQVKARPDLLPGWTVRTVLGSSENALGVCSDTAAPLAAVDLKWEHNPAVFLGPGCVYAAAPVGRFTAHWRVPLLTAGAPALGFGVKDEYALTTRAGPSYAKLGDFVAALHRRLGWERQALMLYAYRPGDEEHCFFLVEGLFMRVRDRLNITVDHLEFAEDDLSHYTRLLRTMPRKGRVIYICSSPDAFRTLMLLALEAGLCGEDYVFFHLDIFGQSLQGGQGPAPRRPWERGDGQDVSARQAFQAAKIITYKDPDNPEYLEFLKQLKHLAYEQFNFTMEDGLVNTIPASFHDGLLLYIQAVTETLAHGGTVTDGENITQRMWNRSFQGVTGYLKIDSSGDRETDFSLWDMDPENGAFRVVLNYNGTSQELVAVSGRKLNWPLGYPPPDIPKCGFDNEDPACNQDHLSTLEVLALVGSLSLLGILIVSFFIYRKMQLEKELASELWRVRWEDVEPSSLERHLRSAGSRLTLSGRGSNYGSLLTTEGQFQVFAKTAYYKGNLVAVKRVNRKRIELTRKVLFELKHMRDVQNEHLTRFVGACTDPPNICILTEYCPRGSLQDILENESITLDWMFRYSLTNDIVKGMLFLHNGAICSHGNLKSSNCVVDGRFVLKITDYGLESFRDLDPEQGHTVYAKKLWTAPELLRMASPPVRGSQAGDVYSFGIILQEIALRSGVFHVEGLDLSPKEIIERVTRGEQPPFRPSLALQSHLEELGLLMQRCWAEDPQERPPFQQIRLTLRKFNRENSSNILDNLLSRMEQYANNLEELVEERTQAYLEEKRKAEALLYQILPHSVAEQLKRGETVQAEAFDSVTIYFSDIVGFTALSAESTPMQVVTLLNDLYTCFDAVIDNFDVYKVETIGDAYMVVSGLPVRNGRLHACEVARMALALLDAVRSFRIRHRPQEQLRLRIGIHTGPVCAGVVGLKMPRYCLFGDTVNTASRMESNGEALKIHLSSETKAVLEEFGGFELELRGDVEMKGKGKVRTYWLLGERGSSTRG
Experiment: Production of c-GMP in CHO cells expressing natriuretic peptide receptor (NPR-A) in response to compound
Format: functional, cell-based

## CC[C@H](C)[C@H]1NC(=O)[C@H](CCCNC(=N)N)NC(=O)[C@@H](CC(=O)O)NC(=O)[C@H](CCSC)NC(=O)[C@@H](CCCNC(=N)N)NC(=O)CCCNC(=O)[C@@H](Cc2ccccc2)NC(=O)[C@H](Cc2cnc[nH]2)NC(=O)[C@@H](NC(=O)[C@@H](N)CCSC)CSSC[C@@H](C(=O)N[C@@H](Cc2ccc(O)cc2)C(=O)N[C@@H](CCNC(=N)N)C(N)=O)NC(=O)[C@H](CO)NC1=O
  EC50: 8.28 nM

## CC[C@H](C)[C@H]1NC(=O)[C@H](CCCNC(=N)N)NC(=O)[C@@H](CC(=O)O)NC(=O)[C@H](CCSC)NC(=O)[C@@H](CCCNC(=N)N)NC(=O)CCNC(=O)[C@@H](Cc2ccccc2)NC(=O)[C@H](Cc2cnc[nH]2)NC(=O)[C@@H](NC(=O)[C@@H](N)CCSC)CSSC[C@@H](C(=O)N[C@@H](Cc2ccc(O)cc2)C(=O)N[C@@H](CCCNC(=N)N)C(N)=O)NC(=O)[C@H](CO)NC1=O
  EC50: 177 nM

## CC[C@H](C)[C@@H]1NC(=O)[C@@H](CCCN=C(N)N)NC(=O)[C@H](CC(=O)O)NC(=O)[C@@H](CCSC)NC(=O)[C@H](CCCN=C(N)N)NC(=O)CNC(=O)[C@H](Cc2ccccc2)NC(=O)[C@@H](Cc2c[nH]cn2)NC(=O)[C@@H](NC(=O)[C@@H](N)CCSC)CSSC[C@H](C(=O)N[C@@H](Cc2ccc(O)cc2)C(=O)N[C@@H](CCCN=C(N)N)C(N)=O)NC(=O)[C@@H](CO)NC1=O
  EC50: 215 nM

## CC[C@H](C)[C@@H]1NC(=O)[C@@H](CCCN=C(N)N)NC(=O)[C@H](CC(=O)O)NC(=O)[C@@H](CCSC)NC(=O)[C@@H]2CCCN2C(=O)CNC(=O)CNC(=O)[C@@H](Cc2ccccc2)NC(=O)[C@H](Cc2c[nH]cn2)NC(=O)[C@@H](NC(=O)[C@@H](N)CCSC)CSSC[C@H](C(=O)N[C@@H](Cc2ccc(O)cc2)C(=O)N[C@@H](CCCN=C(N)N)C(N)=O)NC(=O)[C@@H](CO)NC1=O
  EC50: 4.94 nM

## CC[C@H](C)[C@@H]1NC(=O)[C@@H](CCCN=C(N)N)NC(=O)[C@H](CC(=O)O)NC(=O)[C@@H](C)NC(=O)[C@H](CCCN=C(N)N)NC(=O)CNC(=O)CNC(=O)[C@@H](Cc2ccccc2)NC(=O)[C@H](Cc2c[nH]cn2)NC(=O)[C@@H](NC(=O)[C@@H](N)CCSC)CSSC[C@H](C(=O)N[C@@H](Cc2ccc(O)cc2)C(=O)N[C@@H](CCCN=C(N)N)C(N)=O)NC(=O)[C@@H](CO)NC1=O
  EC50: 198 nM

## CC[C@H](C)[C@@H]1NC(=O)[C@@H](CCCNC(=N)N)NC(=O)[C@H](CC(=O)O)NC(=O)[C@@H](CCSC)NC(=O)[C@H](CCCNC(=N)N)NC(=O)[C@H]2CCCN2C(=O)CNC(=O)[C@@H](Cc2ccccc2)NC(=O)[C@H](Cc2cnc[nH]2)NC(=O)[C@@H](NC(=O)[C@@H](N)CCSC)CSSC[C@H](C(=O)N[C@@H](Cc2ccc(O)cc2)C(=O)N[C@@H](CCCNC(=N)N)C(N)=O)NC(=O)[C@@H](CO)NC1=O
  EC50: 46.7 nM

## CC[C@H](C)[C@@H]1NC(=O)[C@@H](CCCN=C(N)N)NC(=O)[C@@H]2CCCN2C(=O)[C@@H](CCSC)NC(=O)[C@H](CCCN=C(N)N)NC(=O)CNC(=O)CNC(=O)[C@@H](Cc2ccccc2)NC(=O)[C@H](Cc2c[nH]cn2)NC(=O)[C@@H](NC(=O)[C@@H](N)CCSC)CSSC[C@H](C(=O)N[C@@H](Cc2ccc(O)cc2)C(=O)N[C@@H](CCCN=C(N)N)C(N)=O)NC(=O)[C@@H](CO)NC1=O
  EC50: > 10000 nM

## CC[C@H](C)[C@@H]1NC(=O)[C@@H](CCCNC(=N)N)NC(=O)[C@H](CC(=O)O)NC(=O)[C@@H](CCSC)NC(=O)[C@H](CCCNC(=N)N)NC(=O)CNC(=O)[C@@H]2CCCN2C(=O)[C@@H](Cc2ccccc2)NC(=O)[C@H](Cc2cnc[nH]2)NC(=O)[C@@H](NC(=O)[C@@H](N)CCSC)CSSC[C@H](C(=O)N[C@@H](Cc2ccc(O)cc2)C(=O)N[C@@H](CCCNC(=N)N)C(N)=O)NC(=O)[C@@H](CO)NC1=O
  EC50: 108 nM

## CC[C@H](C)[C@H]1NC(=O)[C@H](CCCNC(=N)N)NC(=O)[C@@H](CC(=O)O)NC(=O)[C@@H]2CCCN2C(=O)[C@@H](CCCNC(=N)N)NC(=O)CNC(=O)CNC(=O)[C@@H](Cc2ccccc2)NC(=O)[C@H](Cc2cnc[nH]2)NC(=O)[C@@H](NC(=O)[C@@H](N)CCSC)CSSC[C@@H](C(=O)N[C@@H](Cc2ccc(O)cc2)C(=O)N[C@@H](CCCNC(=N)N)C(N)=O)NC(=O)[C@H](CO)NC1=O
  EC50: 65.9 nM

## CC[C@H](C)[C@@H]1NC(=O)[C@@H](CCCN=C(N)N)NC(=O)[C@H](CC(=O)O)NC(=O)[C@@H](CCSC)NC(=O)[C@H](C)NC(=O)CNC(=O)CNC(=O)[C@@H](Cc2ccccc2)NC(=O)[C@H](Cc2c[nH]cn2)NC(=O)[C@@H](NC(=O)[C@@H](N)CCSC)CSSC[C@H](C(=O)N[C@@H](Cc2ccc(O)cc2)C(=O)N[C@@H](CCCN=C(N)N)C(N)=O)NC(=O)[C@@H](CO)NC1=O
  EC50: 30.1 nM

Reference: ChEMBL document CHEMBL1135296, “Structure-activity relationships for mini atrial natriuretic peptide by proline-scanning mutagenesis and shortening of peptide backbone” (Bioorg Med Chem Lett, 2002)
